Laboratory results reported in ChEMBL document CHEMBL4342406, “Revealing quinquennial anticancer journey of morpholine: A SAR based review” (Eur J Med Chem, 2019).
Each block holds one molecule with its values, some of them ahead of it.

Experiments:
[1] = target: Epidermal growth factor receptor (Homo sapiens, UniProt P00533, T790M); test: Inhibition of EGFR T790M mutant (unknown origin) incubated for 60 mins by ADP-Glo kinase assay
A549 [2] = test: Cytotoxicity against human A549 cells assessed as reduction in cell viability after 72 hrs by MTT assay; assay type: functional, cell-based; conditions: A549, 72 h
HT-29 = test: Cytotoxicity against human HT-29 cells assessed as reduction in cell viability after 72 hrs by MTT assay; assay type: functional, cell-based; conditions: HT-29, 72 h
Lymphocyte = test: Cytotoxicity against human lymphocytes assessed as reduction in cell viability after 72 hrs by MTT assay; assay type: cell-based
A549 [3] = test: Antiproliferative activity in human A549 cells by MTT assay; assay type: functional, cell-based
MCF7 [4] = test: Antiproliferative activity in human MCF7 cells by MTT assay; assay type: functional, cell-based
BEL-7404 tumor cell line = test: Antiproliferative activity in human Bel7404 cells by MTT assay; assay type: functional, cell-based
SMMC-7721 = test: Antiproliferative activity in human SMMC7721 cells after 72 hrs by MTS assay; assay type: functional, cell-based; conditions: SMMC-7721, 72 h
Bel-7402 = test: Antiproliferative activity in human Bel7402 cells after 72 hrs by MTS assay; assay type: functional, cell-based; conditions: Bel-7402, 72 h
QGY-7703 = test: Antiproliferative activity in human QGY7703 cells after 72 hrs by MTS assay; assay type: functional, cell-based; conditions: QGY-7703, 72 h
MCF7 [5] = test: Cytotoxicity against human MCF7 cells assessed as reduction in cell viability incubated for 3 days by MTT assay; assay type: functional, cell-based; conditions: MCF7, 72 h

Epidermal growth factor receptor, sequence (P00533 25-1210 T790M limits assumed): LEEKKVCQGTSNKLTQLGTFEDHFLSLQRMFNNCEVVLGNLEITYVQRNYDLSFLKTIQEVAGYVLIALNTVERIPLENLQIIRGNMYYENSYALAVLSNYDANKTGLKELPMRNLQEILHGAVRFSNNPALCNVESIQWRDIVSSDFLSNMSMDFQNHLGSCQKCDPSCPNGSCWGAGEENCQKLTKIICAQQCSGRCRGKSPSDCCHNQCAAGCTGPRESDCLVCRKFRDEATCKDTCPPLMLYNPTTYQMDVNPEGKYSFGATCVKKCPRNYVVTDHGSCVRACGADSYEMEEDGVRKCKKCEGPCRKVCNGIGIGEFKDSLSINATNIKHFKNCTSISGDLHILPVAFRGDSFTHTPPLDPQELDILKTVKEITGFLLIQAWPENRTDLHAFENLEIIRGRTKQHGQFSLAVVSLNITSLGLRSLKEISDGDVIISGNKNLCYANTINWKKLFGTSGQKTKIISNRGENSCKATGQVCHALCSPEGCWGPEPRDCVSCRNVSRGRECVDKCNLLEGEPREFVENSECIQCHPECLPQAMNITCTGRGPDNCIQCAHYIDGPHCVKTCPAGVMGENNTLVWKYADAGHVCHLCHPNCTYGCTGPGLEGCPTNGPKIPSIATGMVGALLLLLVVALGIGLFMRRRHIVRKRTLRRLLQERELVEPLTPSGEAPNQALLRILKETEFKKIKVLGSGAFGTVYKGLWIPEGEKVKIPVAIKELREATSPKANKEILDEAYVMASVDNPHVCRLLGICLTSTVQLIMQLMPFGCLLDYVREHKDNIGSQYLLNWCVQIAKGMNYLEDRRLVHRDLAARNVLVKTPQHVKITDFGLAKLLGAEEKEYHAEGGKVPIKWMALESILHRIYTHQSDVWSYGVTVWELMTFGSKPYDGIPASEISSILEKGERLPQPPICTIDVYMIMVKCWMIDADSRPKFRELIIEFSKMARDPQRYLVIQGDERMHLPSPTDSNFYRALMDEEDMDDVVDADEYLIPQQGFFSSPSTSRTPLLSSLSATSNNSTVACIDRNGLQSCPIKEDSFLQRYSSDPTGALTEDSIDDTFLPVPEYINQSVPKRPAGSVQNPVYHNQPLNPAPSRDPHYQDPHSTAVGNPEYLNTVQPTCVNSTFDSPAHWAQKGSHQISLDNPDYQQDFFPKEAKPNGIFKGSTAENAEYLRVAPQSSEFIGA

IC50 (A549 [3]): 11.7 µM
IC50 (MCF7 [4]): 13 µM
IC50 (BEL-7404 tumor cell line): 25.8 µM
SMILES: CCCCCCCCCC[C@H](O)COCCOC[C@@H](O)CCCCCCCCCCCCCCN1CCOCC1

IC50 (SMMC-7721): 0.123 µM
IC50 (Bel-7402): 0.285 µM
SMILES: O=c1ccc(-c2cc(C(F)(F)F)c(N3CCOCC3)nn2)n[nH]1
IC50 (QGY-7703): 0.178 µM

The next lines start with the molecule.

SMILES: C=CC(=O)Nc1cccc(Nc2ncnc3cc(OC)c(OCCN4CCOCC4)cc23)c1
IC50 [1]: 0.0043 µM

SMILES: COc1ccc(Cn2cnc3c(cc(N4CCOCC4)c4ccccc43)c2=O)cc1
IC50 (A549 [2]): 134 µM
IC50 (HT-29): 4.12 µM
IC50 (Lymphocyte): 175 µM

SMILES: COc1c2ccoc2c(S(=O)(=O)N2CCOCC2)c2oc(C)c(C(C)=O)c(=O)c12
IC50 (MCF7 [5]): 0.125 µM
